The results in this text go back to patent EP4745153A1, “GLP-1, GIP AND GCG RECEPTOR […] USE THEREOF” (Jiangsu Hengrui Pharmaceuticals Co., Ltd., priority 2023, dated 2025).

For orientation: EC50 means the concentration giving half of the maximal effect. As a reminder, the AUC(0-inf) is total exposure, with the tail of the curve extrapolated. The low end stands for low exposure, the high end for high exposure.

Structures are written as SMILES. Read-outs that look alike come from different tables or passages of the source. Starred links: 1 amine or outer side, 2 acyl side, 3 side chain; linkers in the order of their positions; H or OH if unused. Non-standard residues stand in square brackets, D forms with d. Residues, ends and D or L forms follow the SMILES beside them. Groups on a side chain read outwards from the residue. *: point of attachment. C20 diacid = O=C(O)CCCCCCCCCCCCCCCCCCC(=O)*; γGlu = O=C(O)[C@H](CCC(=O)[*:2])N[*:1]; αMeK = C[C@](N)(CCCCN)C(=O)O; AEEA = NCCOCCOCC(=O)O; Aib = CC(C)(N)C(=O)O

The target in one data set is T1, human GLP-1R (Homo sapiens, UniProt P43220).
T1 construct: expressed in transfected cells; host or cells: CHO-K1 clonal cell line
T1 sequence (P43220 24-463): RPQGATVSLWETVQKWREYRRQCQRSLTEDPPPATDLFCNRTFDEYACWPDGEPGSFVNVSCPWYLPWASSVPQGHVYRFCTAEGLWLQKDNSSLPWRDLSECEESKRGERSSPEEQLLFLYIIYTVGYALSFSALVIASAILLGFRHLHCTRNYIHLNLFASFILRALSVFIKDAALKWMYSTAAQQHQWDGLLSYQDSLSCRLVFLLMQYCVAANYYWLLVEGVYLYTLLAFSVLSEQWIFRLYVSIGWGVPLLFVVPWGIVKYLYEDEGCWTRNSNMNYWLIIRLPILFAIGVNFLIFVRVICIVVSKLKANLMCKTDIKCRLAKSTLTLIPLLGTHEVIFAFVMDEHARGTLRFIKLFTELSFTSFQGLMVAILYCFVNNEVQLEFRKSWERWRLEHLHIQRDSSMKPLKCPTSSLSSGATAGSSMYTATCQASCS
Briefly: cAMP HTRF agonist activity assay in CHO-K1 cells expressing GLP-1R. As to Activity against human GLP-1R (EC50 nM): 5% FBS, 0.1% Casein. In kind it is cell-based. A digest of the protocol: (§1)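 Clonal CHO-K1 lines, 5000 cells/well, exposed to polypeptides for 30 min at 37°C. Intracellular cAMP read by HTRF (cAMP-d2 conjugate plus anti-cAMP-Eu cryptate in lysis buffer). Relative EC50 from four-parameter nonlinear fit of percent maximum response against concentration.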
A general note: In TR-FRET formats the signal depends on donor and acceptor labels being close together.

Another data set concerns the target T2, human GCGR (Homo sapiens, UniProt P47871).
T2 construct: expressed in transfected cells; host or cells: CHO-K1 clonal cell line
The data set can be described thus: cAMP HTRF agonist activity assay in CHO-K1 cells expressing GCGR. As to Activity against human GCGR (EC50 nM): 5% FBS, 0.1% Casein. In kind it is cell-based. How it is done:
Functional activity was determined in CHO-K1 clonal cell lines expressing GIPR, GLP-1R, and GCGR. […] Each recipient cell (5000 cells/well) was added to an SV 96-well plate (Cisbio, 66PL96025) and incubated with the prepared polypeptide at 37°Cfor 30 min. The resulting increase in intracellular cAMP was quantitatively measured using the cAMP-GS dynamic HTRF assay kit (Cisbio, 62AM4PEJ). Briefly, the intracellular cAMP levels were determined by adding cAMP-d2 conjugate in cell lysis buffer, followed by the antibody anti-cAMP-Eu cryptate (also in cell lysis buffer).
Using the maximum response percentage vs. the added polypeptide concentration, the relative EC50 values were derived through nonlinear regression analysis and fitted to a four-parameter logarithmic equation. For specific data, refer to Tables 7-1 to 7-8 below. […]

Data set [1] in a line: Pharmacokinetics in mice after single intravenous injection. On the set-up: species or system C57 mice. The conditions noted are these: mouse, in vivo, male C57 mice, single intravenous dose 200 nmol/kg, plasma; for clearance: read-out: CLp; for half-life: read-out: T1/2 (converted). A digest of the protocol:
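Male C57 mice (~25 g, 4-6 weeks, n=3) received a single i.v. dose of 200 nmol/kg in 1×PBS. Plasma collected from 5 min to 72 h was methanol-precipitated with verapamil internal standard and quantified by LC-MS (ESI positive, MRM); PK parameters were calculated by PKSolver.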

Another data set has as its target T3, human GIPR (Homo sapiens, UniProt P48546).
T3 construct: expressed in transfected cells; host or cells: CHO-K1 clonal cell line
T3 sequence (P48546 22-466): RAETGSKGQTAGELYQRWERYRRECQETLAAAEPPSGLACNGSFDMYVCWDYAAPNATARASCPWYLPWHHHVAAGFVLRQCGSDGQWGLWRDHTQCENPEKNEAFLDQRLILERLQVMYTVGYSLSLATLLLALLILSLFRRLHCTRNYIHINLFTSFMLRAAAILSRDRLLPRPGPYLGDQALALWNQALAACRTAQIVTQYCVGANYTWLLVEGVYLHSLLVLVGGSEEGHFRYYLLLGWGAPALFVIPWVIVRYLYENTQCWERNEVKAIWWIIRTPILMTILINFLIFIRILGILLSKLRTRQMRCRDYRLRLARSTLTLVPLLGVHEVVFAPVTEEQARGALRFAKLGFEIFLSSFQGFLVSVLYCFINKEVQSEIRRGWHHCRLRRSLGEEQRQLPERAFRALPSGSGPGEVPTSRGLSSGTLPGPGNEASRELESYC
The data set can be described thus: cAMP HTRF agonist activity assay in CHO-K1 cells expressing GIPR. Also: 5% FBS, 0.1% Casein. It counts as cell-based. The conditions noted are these: read-out: Activity against human GIPR (EC50 nM). A digest of the protocol:
as §1

Setting [2] is: read-out: Activity against human GCGR (EC50 nM).

T2 sequence (P47871 26-477): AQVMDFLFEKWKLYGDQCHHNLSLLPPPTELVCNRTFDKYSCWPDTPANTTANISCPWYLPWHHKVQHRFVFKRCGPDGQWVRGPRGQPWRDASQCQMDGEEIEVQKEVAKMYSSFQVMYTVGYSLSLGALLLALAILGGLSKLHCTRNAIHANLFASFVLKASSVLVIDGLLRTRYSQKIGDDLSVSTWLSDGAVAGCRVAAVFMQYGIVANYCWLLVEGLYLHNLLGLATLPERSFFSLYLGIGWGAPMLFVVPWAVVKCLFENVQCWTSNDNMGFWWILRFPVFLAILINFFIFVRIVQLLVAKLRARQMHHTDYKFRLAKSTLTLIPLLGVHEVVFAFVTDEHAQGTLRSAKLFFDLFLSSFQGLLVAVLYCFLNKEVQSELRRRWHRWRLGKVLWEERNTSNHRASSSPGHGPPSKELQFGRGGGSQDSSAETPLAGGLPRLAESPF

In turn, `CC[C@H](C)[C@H](NC(=O)[C@H](CO)NC(=O)[C@H](CC(C)C)NC(=O)[C@H](CC(=O)O)NC(=O)[C@H](CO)NC(=O)[C@@H](NC(=O)[C@H](Cc1ccccc1)NC(=O)[C@@H](NC(=O)CNC(=O)[C@H](Cc1c[nH]cn1)NC(=O)C(C)(C)NC(=O)[C@@H](N)Cc1c[nH]cn1)[C@@H](C)O)[C@@H](C)O)C(=O)N[C@@](C)(CC(C)C)C(=O)N[C@@H](CC(C)C)C(=O)N[C@@H](CCC(=O)O)C(=O)N[C@@H](CCCCNC(=O)COCCOCCNC(=O)COCCOCCNC(=O)CC[C@H](NC(=O)CCCCCCCCCCCCCCCCCCC(=O)O)C(=O)O)C(=O)N[C@@H](CCCCN)C(=O)N[C@@H](C)C(=O)N[C@@H](C)C(=O)NC(C)(CC)C(=O)N[C@@H](CCC(=O)O)C(=O)N[C@@H](Cc1ccccc1)C(=O)N[C@H](C(=O)N[C@@H](CCC(=O)O)C(=O)N[C@@H](Cc1c[nH]c2ccccc12)C(=O)N[C@@H](CC(C)C)C(=O)N[C@@H](CC(C)C)C(=O)N[C@@H](C)C(=O)NCC(=O)NCC(=O)N1CCC[C@H]1C(=O)N[C@@H](CO)C(=O)N[C@@H](CO)C(=O)NCC(=O)N[C@@H](C)C(=O)N1CCC[C@H]1C(=O)N1CCC[C@H]1C(=O)N1CCC[C@H]1C(=O)N[C@@H](CO)C(N)=O)C(C)C` (stereo partly drawn) [Compound 0138] registered a 50% effective concentration (EC50) on human GLP-1R of 0.019 nM. At human GCGR, this compound registered a 50% effective concentration (EC50) of 0.055 nM. In addition, in data set [1], the AUC(0-inf) amounted to 18.5 µM·h, the C0 amounted to 3.28 µM, the clearance is 0.181 mL/min/kg and the half-life is 8.2 h.

Regarding `CC[C@H](C)[C@H](NC(=O)[C@H](CO)NC(=O)[C@H](Cc1ccc(O)cc1)NC(=O)[C@H](CC(=O)O)NC(=O)[C@H](CO)NC(=O)[C@@H](NC(=O)[C@H](Cc1ccccc1)NC(=O)[C@@H](NC(=O)CNC(=O)[C@H](Cc1c[nH]cn1)NC(=O)C(C)(C)NC(=O)[C@@H](N)Cc1c[nH]cn1)[C@@H](C)O)[C@@H](C)O)C(=O)N[C@@H](CC(C)C)C(=O)N[C@@H](CC(C)C)C(=O)N[C@@H](CCC(=O)O)C(=O)N[C@@H](CCCCNC(=O)COCCOCCNC(=O)COCCOCCNC(=O)CC[C@H](NC(=O)CCCCCCCCCCCCCCCCCCC(=O)O)C(=O)O)C(=O)N[C@@H](CCCCN)C(=O)N[C@@H](C)C(=O)N[C@@H](C)C(=O)N[C@@H](CCC(N)=O)C(=O)N[C@@H](CCC(=O)O)C(=O)N[C@@H](Cc1ccccc1)C(=O)N[C@H](C(=O)N[C@@H](CCC(=O)O)C(=O)N[C@@H](Cc1c[nH]c2ccccc12)C(=O)N[C@@H](CC(C)C)C(=O)N[C@@H](CC(C)C)C(=O)N[C@@H](C)C(=O)N[C@H](CCC(=O)O)C(=O)NCC(=O)N1CCC[C@H]1C(=O)N[C@@H](CO)C(=O)N[C@@H](CO)C(=O)NCC(=O)N[C@@H](C)C(=O)N1CCC[C@H]1C(=O)N1CCC[C@H]1C(=O)N1CCC[C@H]1C(=O)N[C@@H](CO)C(N)=O)C(C)C` [Compound 0151], the EC50 on human GIPR turned out to be 0.004 nM; on human GCGR (setting [2]), 0.055 nM.

`CC(C)C[C@H](NC(=O)[C@H](CC(C)C)NC(=O)[C@H](Cc1c[nH]c2ccccc12)NC(=O)[C@H](CCC(=O)O)NC(=O)[C@@H](NC(=O)[C@H](Cc1ccccc1)NC(=O)[C@H](CCC(=O)O)NC(=O)[C@H](CCC(N)=O)NC(=O)[C@H](C)NC(=O)[C@H](C)NC(=O)[C@H](CCCCN)NC(=O)[C@H](CCCCNC(=O)COCCOCCNC(=O)COCCOCCNC(=O)CC[C@H](NC(=O)CCCCCCCCCCCCCCCCCCC(=O)O)C(=O)O)NC(=O)[C@H](CCC(=O)O)NC(=O)[C@H](CC(C)C)NC(=O)[C@H](Cc1ccc(O)cc1)NC(=O)[C@](C)(CCCCN)NC(=O)[C@H](CO)NC(=O)[C@H](Cc1ccc(O)cc1)NC(=O)[C@H](CC(=O)O)NC(=O)[C@H](CO)NC(=O)[C@@H](NC(=O)[C@H](Cc1ccccc1)NC(=O)[C@@H](NC(=O)CNC(=O)[C@H](Cc1c[nH]cn1)NC(=O)C(C)(C)NC(=O)[C@@H](N)Cc1c[nH]cn1)[C@@H](C)O)[C@@H](C)O)C(C)C)C(=O)N[C@@H](C)C(=O)NCC(=O)NCC(=O)N1CCC[C@H]1C(=O)N[C@@H](CO)C(=O)N[C@@H](CO)C(=O)NCC(=O)N[C@@H](C)C(=O)N1CCC[C@H]1C(=O)N1CCC[C@H]1C(=O)N1CCC[C@H]1C(=O)N[C@@H](CO)C(N)=O` [Compound 0104] (H-H[Aib]HGTFTSDYS[αMeK]YLEK([AEEA-AEEA-γGlu-C20 diacid])KAAQEFVEWLLAGGPSSGAPPPS-NH2) gave a 50% effective concentration (EC50) on human GCGR of 0.037 nM. Also, in data set [1], the area under the curve AUC(0-inf) was determined as 30.9 µM·h, the C0 was found to be 4.22 µM, the clearance turned out to be 0.108 mL/min/kg and the half-life is 11.5 h.

For the compound `CC(C)C[C@H](NC(=O)[C@H](CC(C)C)NC(=O)[C@H](Cc1c[nH]c2ccccc12)NC(=O)[C@H](CCC(=O)O)NC(=O)[C@@H](NC(=O)[C@H](Cc1ccccc1)NC(=O)[C@H](CCC(=O)O)NC(=O)[C@H](CCC(N)=O)NC(=O)[C@H](C)NC(=O)[C@H](C)NC(=O)[C@H](CCCCN)NC(=O)[C@H](CCCCNC(=O)COCCOCCNC(=O)COCCOCCNC(=O)CC[C@H](NC(=O)CCCCCCCCCCCCCCCCCCC(=O)O)C(=O)O)NC(=O)[C@H](CCC(=O)O)NC(=O)[C@H](CC(C)C)NC(=O)[C@H](CC(C)C)NC(=O)[C@](C)(CCCCN)NC(=O)[C@H](CO)NC(=O)[C@H](Cc1ccc(O)cc1)NC(=O)[C@H](CC(=O)O)NC(=O)[C@H](CO)NC(=O)[C@@H](NC(=O)[C@H](Cc1ccccc1)NC(=O)[C@@H](NC(=O)CNC(=O)[C@H](Cc1c[nH]cn1)NC(=O)C(C)(C)NC(=O)[C@@H](N)Cc1c[nH]cn1)[C@@H](C)O)[C@@H](C)O)C(C)C)C(=O)N[C@@H](C)C(=O)NCC(=O)NCC(=O)N1CCC[C@H]1C(=O)N[C@@H](CO)C(=O)N[C@@H](CO)C(=O)NCC(=O)N[C@@H](C)C(=O)N1CCC[C@H]1C(=O)N1CCC[C@H]1C(=O)N1CCC[C@H]1C(=O)N[C@@H](CO)C(N)=O` [Compound 0112] (H-H[Aib]HGTFTSDYS[αMeK]LLEK([AEEA-AEEA-γGlu-C20 diacid])KAAQEFVEWLLAGGPSSGAPPPS-NH2), the EC50 turned out to be 0.005 nM on human GIPR and 0.087 nM at human GCGR (setting [2]).

For the compound `CC[C@H](C)[C@H](NC(=O)[C@H](CO)NC(=O)[C@H](Cc1ccc(O)cc1)NC(=O)[C@H](CC(=O)O)NC(=O)[C@H](CO)NC(=O)[C@@H](NC(=O)[C@H](Cc1ccccc1)NC(=O)[C@@H](NC(=O)CNC(=O)[C@H](Cc1c[nH]cn1)NC(=O)C(C)(C)NC(=O)[C@@H](N)Cc1c[nH]cn1)[C@@H](C)O)[C@@H](C)O)C(=O)N[C@@H](CC(C)C)C(=O)N[C@@H](CC(C)C)C(=O)N[C@@H](CCC(=O)O)C(=O)N[C@@H](CCCCNC(=O)COCCOCCNC(=O)COCCOCCNC(=O)CC[C@H](NC(=O)CCCCCCCCCCCCCCCCCCC(=O)O)C(=O)O)C(=O)N[C@@H](CCCCN)C(=O)N[C@@H](C)C(=O)N[C@@H](C)C(=O)NC(C)(CC)C(=O)N[C@@H](CCC(=O)O)C(=O)N[C@@H](Cc1ccccc1)C(=O)N[C@H](C(=O)N[C@@H](CCC(=O)O)C(=O)N[C@@H](Cc1c[nH]c2ccccc12)C(=O)N[C@@H](CC(C)C)C(=O)N[C@@H](CC(C)C)C(=O)N[C@@H](C)C(=O)NCC(=O)NCC(=O)N1CCC[C@H]1C(=O)N[C@@H](CO)C(=O)N[C@@H](CO)C(=O)NCC(=O)N[C@@H](C)C(=O)N1CCC[C@H]1C(=O)N1CCC[C@H]1C(=O)N1CCC[C@H]1C(=O)N[C@@H](CO)C(N)=O)C(C)C` (stereo partly drawn) [Compound 0135], the EC50 amounted to 0.013 nM on human GLP-1R (read-out: Activity against human GLP-1R (EC50 nM)), 0.001 nM at human GIPR and 0.019 nM on human GCGR (setting [2]).
